Assay results: patent US7767411B2, “Assay system for specific inhibitors of protein kinase C-related kinases” (Universitaetsklinikum Freiburg, priority 2004, dated 2010)

Columns and labels:
MCF-7 cells = test: androgen receptor agonist R 1881-induced cell proliferation in MCF-7 cells; type: cell-based; settings: presence or absence of R1881, FIG. 3
Procedure: The inventors studied the cell proliferation inter alia in MCF-7 cells which is induced by the androgen receptor agonist R 1881 under the activating/promoting action of PRKs. MCF-7 cells were cultivated in RPMI 1640 supplemented with 2 g/l NaHCO3, L-Glu, Pen/Strep, 10% FCS (fetal calf serum), and insulin 1U/ml in the presence or absence of R1881 and Ro31-8220 at the indicated concentrations. The cell proliferation assay was performed according to the manufacture's instructions (Roche, #1647229).

[1] = tested on: androgen receptor (AR) activation by RhoA V14; test: ligand-dependent activation of the androgen receptor (AR) by RhoA V14, MMTV-LUC reporter in 293 cells; type: cell-based; settings: RhoA V14 plasmid, with or without R 1881 10^-10 M, 5×10^−7 M Ro31-8220
Source text: In another preferred embodiment, the assay system comprises the reaction of the ligand-dependent activation of the androgen receptor (AR) by RhoA V 14. […] Reference is made, in this respect, to FIG. 2.

protein kinases = settings: described in S. P. Davies et al.; cited from earlier work

Row | SMILES | R 1881-induced cell proliferation (MCF-7 cells) | agonist-dependent androgen receptor (AR) activation by RhoA V14 [1] | protein kinases acted on (specificity) (protein kinases)
1 | Cn1cc(C2=C(c3cn(CCCSC(=N)N)c4ccccc34)C(=O)NC2=O)c2ccccc21 [Ro31-8220] | inhibited | abolished | act on PRKs, but also on MSK1, S6K1 and other protein kinases
2 | C[C@@H](N)[C@H]1CC[C@H](C(=O)Nc2ccncc2)CC1 [Y 27632] |  |  | act on PRKs, but also on MSK1, ROCK-II and MAPKAP-K1b
